Test results published in the NIST ThermoML archive (doi:10.1021/je900188m).

What was measured:
[1] = xn = mol fraction of the nth substance listed; conditions: 101 kPa, Liquid; for viscosity: Capillary tube (Ostwald / Ubbelohde) method; for mass density: Vibrating tube method
[2] = 101 kPa, Liquid; for viscosity: Capillary tube (Ostwald / Ubbelohde) method; for mass density: Vibrating tube method

NCCO [2-aminoethan-1-ol] + O
[1]
Conditions | mass density, 298.15 K [kg/m3] | mass density, 313.15 K [kg/m3] | mass density, 323.15 K [kg/m3] | mass density, 343.15 K [kg/m3] | mass density, 353.15 K [kg/m3] | viscosity, 298.15 K [mPa·s] | viscosity, 313.15 K [mPa·s] | viscosity, 323.15 K [mPa·s] | viscosity, 343.15 K [mPa·s] | viscosity, 353.15 K [mPa·s]
x1 = 0.06867 | 1005 | 999 | 994 | 983 | 977 | 1.7 | 1.18 | 0.95 | 0.67 | 0.58
x1 = 0.1122 | 1011 | 1003 | 998 | 986 | 979 | 2.48 | 1.67 | 1.33 | 0.92 | 0.77
x1 = 0.1643 | 1016 | 1008 | 1002 | 989 | 982 | 3.58 | 2.28 | 1.75 | 1.14 | 0.95
x1 = 0.2278 | 1021 | 1012 | 1005 | 992 | 984 | 5.51 | 3.39 | 2.54 | 1.57 | 1.28
x1 = 0.4076 | 1026 | 1016 | 1008 | 993 | 985 | 12.46 | 6.96 | 4.94 | 2.79 | 2.18
x1 = 0.7264 | 1020 | 1008 | 1001 | 985 | 976 | 19.4 | 10.2 | 7.06 | 3.81 | 2.93

NCCO [2-aminoethan-1-ol]
[2]
Conditions | mass density [kg/m3] | viscosity [mPa·s]
298.15 K | 1012 | 19.9
313.15 K | 1000 | 9.61
323.15 K | 992 | 6.72
343.15 K | 976 | 3.69
353.15 K | 968 | 2.85
